Among the data in patent US20200317716A1, “PREPARATION OF BILE ACIDS AND INTERMEDIATES THEREOF” (ALLERGAN SALES, LLC, priority 2008, published 2020) are cell survival and melting point values, retold here.

One series has as its system Primary human adipocytes. The experiment in a line: MTS cell viability assay on primary human adipocytes. The following applies: 0.005%-0.1% bile acid in serum-free media, incubated for 1 hour at 37° C., MTS read at 490 nm, FIG. 1. It counts as cell-based. The method, then: Primary human adipocytes were incubated with varying concentrations of synthetic sodium deoxycholate synthesized using 9-HAD as starting material or bovine-derived sodium deoxycholate obtained from Sigma as described below.
96 well plates (US Scientific cat # cellstar no. 655180) Serum-free RPMI medium (Mediatech cat #17-105-CV) Sodium deoxycholate (DC) (Sigma cat # D6750) Synthetic Sodium glycodeoxycholate (Kythera)
Adipocytes arrived differentiated and at a density of 13,000 cells per well in a 96 well plate. Two plates were received and each treated with the same samples. Cells were incubated for 24 hours at 37° C. with 5% CO2. A 1% stock solution of each bile acid (synthetic and non-synthetic DCA) were made by dissolving 20 mg into 2 mL media (serum-free). Using the 1% stock solution, the following 11 solutions were prepared by dilution: 0.005%, 0.01%, 0.015%, 0.02%, 0.025%, 0.03%, 0.035%, 0.04%, 0.05%, 0.06%, and 0.1%, as well as 0% (media only).
Cells were washed 2× with 150 μL of room temperature 1×PBS (phosphate buffered saline). Media and then PBS were removed from the wells in a 96 well plate by turning the plate upside down and decanting the liquid into a container. After the last PBS wash, 80 μL of sample was added per well. […]
Cell viability was assessed using a colorimetric assay (MTS) kit from Promega.
On to sodium deoxycholate [syn-NaDC], for which the cell survival entry is recorded as “dose-dependent decrease in cell survival”.

System in the next series: not given
Assay: not given
Conditions: not given
As for `C[C@]12CCC(=O)C[C@H]1CC[C@H]1[C@@H]3CCC(=O)[C@@]3(C)CC[C@@]12O`, the melting point is 213 to 216 °C.

The molecule `C/C=C1/CC[C@H]2[C@@H]3CC[C@@H]4C[C@H](O)CC[C@]4(C)C3=CC[C@]12C` gave a melting point of 146 to 147.3 °C.

The molecule `C/C=C1/CC[C@H]2[C@@H]3CC[C@@H]4C[C@H](OC(C)=O)CC[C@]4(C)C3=CC[C@]12C` displayed a melting point of 93.9 to 97.8 °C.

Molecule `COC(=O)/C=C/[C@@H](C)C1=CC[C@H]2[C@@H]3CC[C@@H]4C[C@H](OC(C)=O)CC[C@]4(C)C3=CC[C@]12C` gave a melting point of 114 to 116 °C.

Take `COC(=O)CC[C@@H](C)[C@H]1CC[C@H]2[C@@H]3CC[C@@H]4C[C@H](OC(C)=O)CC[C@]4(C)C3=CC[C@]12C`: the melting point fell in the range of 122.1 to 123.9 °C.

Consider `COC(=O)CC[C@@H](C)[C@H]1CC[C@H]2[C@@H]3CC[C@@H]4C[C@H](OC(C)=O)CC[C@]4(C)[C@H]3CC(=O)[C@]12C`, for which the melting point lay in the range of 142.2 to 144.4 °C.

With `COC(=O)CC[C@@H](C)[C@H]1CC[C@H]2[C@@H]3CC[C@@H]4C[C@H](OC(C)=O)CC[C@]4(C)[C@H]3C[C@H](O)[C@]12C`, the melting point is 104.2 to 107.7 °C.
